Reference: patent US20210355121A1, “FUSED TRICYCLIC KRAS INHIBITORS” (Incyte Corporation, priority 2020, published 2021)
Read-outs that look alike come from different tables or passages of the source.

Tests used:
[1] = molecular target: KRAS G12C (Homo sapiens, UniProt P01116, G12C); experiment: KRAS G12C GDP-GTP exchange assay (bodipy-GDP for GppNHp, with SOS1); type: biochemical; settings: 2.5 nM bodipy-loaded KRAS G12C, 2 hours pre-incubation with inhibitor, 2 hours after GppNHp-SOS1; read-out: G12C_exchange (KRAS_G12C exchange assay IC50)
Experimental: The inhibitor potency of the exemplified compounds was determined in a fluorescence based guanine nucleotide exchange assay, which measures the exchange of bodipy-GDP (fluorescently labeled GDP) for GppNHp (Non-hydrolyzable GTP analog) to generate the active state of KRAS in the presence of SOS1 (guanine nucleotide exchange factor). Inhibitors were serially diluted in DMSO and a volume of 0.1 μL was transferred to the wells of a black low volume 384-well plate. 5 μL/well volume of bodipy-loaded KRAS G12C diluted to 5 nM in assay buffer (25 mM Hepes pH 7.5, 50 mM NaCl, 10 mM MgCl2 and 0.01% Brij-35) was added to the plate and pre-incubated with inhibitor for 2 hours at ambient temperature. Appropriate controls (enzyme with no inhibitor or with a G12C inhibitor (AMG-510)) were included on the plate. The exchange was initiated by the addition of a 5 μL/well volume containing 1 mM GppNHp and 300 nM SOS1 in assay buffer. The 10 μL/well reaction concentration of the bodipy-loaded KRAS G12C, GppNHp, and SOS1 were 2.5 nM, 500 uM, and 150 nM, respectively. The reaction plates were incubated at ambient temperature for 2 hours, a time estimated for complete GDP-GTP exchange in the absence of inhibitor. For the KRAS G12D and G12V mutants, similar guanine nucleotide exchange assays were used with 2.5 nM as final concentration for the bodipy loaded KRAS proteins and with 4 hours and 3 hours incubation after adding GppNHp-SOS1 mixture for G12D and G12V respectively. A cyclic peptide described to selectively bind G12D mutant (Sakamoto et al., BBRC 484.3 (2017), 605-611) or internal compounds with confirmed binding were used as positive controls in the assay plates. Fluorescence intensities were measured on a PheraStar plate reader instrument (BMG Labtech) with excitation at 485 nm and emission at 520 nm.
Either GraphPad prism or XLfit was used to analyze the data. The IC50 values were derived by fitting the data to a four parameter logistic equation producing a sigmoidal dose-response curve with a variable Hill coefficient. Prism equation: Y=Bottom+(Top−Bottom)/(1+10^((Log IC50−X)*Hill slope)); XLfit equation: Y=(A+((B−A)/(1+((X/C)^D)))) where X is the logarithm of inhibitor concentration and Y is the response.

[2] = test system: MIA PaCa-2 (KRAS G12C) cells; experiment: KRAS_G12C cellular pERK HTRF assay; type: cell-based, human; settings: phospho-ERK1/2 HTRF, 4 hours incubation, read-out: G12C_pERK (KRAS_G12C pERK assay IC50)
Experimental: MIA PaCa-2 (KRAS G12C; ATCC® CRL-1420), A427 (KRAS G12D; ATCC® HTB53), HPAF-II (KRAS G12D; ATCC® CRL-1997) and NCI-H838 (KRAS WT; ATCC® CRL-5844) cells are purchased from ATCC and maintained in RPMI 1640 media supplemented with 10% FBS (Gibco/Life Technologies). The cells are plated at 5000 cells per well (8 uL) into Greiner 384-well low volume, flat-bottom, tissue culture treated white plates and incubated overnight at 37° C., 5% CO2. The next morning, test compound stock solutions are diluted in media at 3× the final concentration, and 4 uL are added to the cells. The plate is mixed by gentle rotation for 30 seconds (250 rpm) at room temperature. The cells are incubated with the KRAS G12C and G12D compounds for 4 hours or 2 hours respectively at 37° C., 5% CO2.
4 uL of 4× lysis buffer with blocking reagent (1:25) (Cisbio) are added to each well and plates are rotated gently (300 rpm) for 30 minutes at room temperature. 4 uL per well of Cisbio anti Phospho-ERK 1/2 d2 is mixed with anti Phospho-ERK 1/2 Cryptate (1:1) are added to each well, mixed by rotation and incubated overnight in the dark at room temperature. Plates are read on the Pherastar plate reader at 665 nm and 620 nm wavelengths. IC50 determination is performed by fitting the curve of inhibitor percent inhibition versus the log of the inhibitor concentration using the GraphPad Prism 7 software.

Sequence of KRAS G12C (P01116 1-188 isoform P01116-2 G12C): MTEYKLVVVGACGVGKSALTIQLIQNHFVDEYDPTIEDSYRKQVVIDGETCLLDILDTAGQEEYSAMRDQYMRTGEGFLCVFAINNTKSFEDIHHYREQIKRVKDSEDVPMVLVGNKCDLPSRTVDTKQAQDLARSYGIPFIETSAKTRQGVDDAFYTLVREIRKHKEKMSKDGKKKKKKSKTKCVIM

Row | IC50 [1] | IC50 ([2]; Homo sapiens, MIA PaCa-2) | IC50 [2] | SMILES
1 | ≤ 100 nM | ≤ 100 nM | – | C=C(F)C(=O)N1CC[C@H](n2ncc3c(OCC4CCCN4C)nc4c(F)c(-c5c(C)c(C)cc6[nH]ncc56)c(Cl)cc4c32)C[C@H]1CC#N (single isomer, unassigned) [Example 77a]
2 | ≤ 100 nM | ≤ 100 nM | – | Cc1c(Cl)cc2[nH]ncc2c1-c1c(Cl)cc2c(nc(N3CC(C)(N(C)C)C3)c3cnn([C@H]4CCN(C(=O)/C=C/CN(C)C)[C@H](CC#N)C4)c32)c1F (single isomer, unassigned) [Example 10a]
3 | ≤ 100 nM | ≤ 100 nM | – | COC/C=C/C(=O)N1CC[C@H](n2ncc3c(O[C@@H](C)[C@@H]4CCCN4C)nc4c(F)c(-c5cccc6cccc(Cl)c56)c(Cl)cc4c32)C[C@H]1CC#N [Example 88, 2-((2S,4S)-4-(8-chloro-7-(8-chloronaphthalen-1-yl)-6-fluoro-4-((S)-1-((S)-1-methylpyrrolidin-2-yl)ethoxy)-1H-pyrazolo[4,3-c]quinolin-1-yl)-1-((E)-4-methoxybut-2-enoyl)piperidin-2-yl)acetonitrile]
4 | ≤ 100 nM | ≤ 100 nM | – | CC#CC(=O)N1CC[C@H](n2ccc3c(OC[C@@H]4CCCN4C)nc4c(F)c(-c5c(C)c(C)cc6[nH]ncc56)c(Cl)cc4c32)C[C@H]1CC#N (single isomer, unassigned) [Example 90a]
5 | ≤ 100 nM | ≤ 100 nM | – | CC#CC(=O)N1CC[C@H](n2ncc3c(N4CC(N(C)C)C4)nc4c(F)c(-c5c(C)c(Cl)cc6[nH]ncc56)c(Cl)cc4c32)C[C@H]1CC#N (single isomer, unassigned) [Example 9a]
6 | ≤ 100 nM | ≤ 100 nM | – | Cc1c(Cl)cc2[nH]ncc2c1-c1c(Cl)cc2c(nc(N3CC(N(C)C)C3)c3cnn([C@H]4CCN(C(=O)/C=C/C(F)F)[C@H](CC#N)C4)c32)c1F (single isomer, unassigned) [Example 7a]
7 | ≤ 100 nM | ≤ 100 nM | – | COC/C=C/C(=O)N1CC[C@H](n2ncc3c(N4CC(C)(N(C)C)C4)nc4c(F)c(-c5cccc6cccc(C#N)c56)c(C)cc4c32)C[C@H]1CC#N (single isomer, unassigned) [Example 61a]
8 | ≤ 100 nM | ≤ 100 nM | – | CC#CC(=O)N1CC[C@H](n2ncc3c(O[C@@H](C)[C@@H]4CCCN4C)nc4c(F)c(-c5cccc6cccc(Cl)c56)c(Cl)cc4c32)C[C@H]1CC#N [Example 87, 2-((2S,4S)-1-(but-2-ynoyl)-4-(8-chloro-7-(8-chloronaphthalen-1-yl)-6-fluoro-4-((S)-1-((S)-1-methylpyrrolidin-2-yl)ethoxy)-1H-pyrazolo[4,3-c]quinolin-1-yl)piperidin-2-yl)acetonitrile]
9 | ≤ 100 nM | ≤ 100 nM | – | Cc1c(Cl)cc2[nH]ncc2c1-c1c(Cl)cc2c(nc(N3CC(N(C)C)C3)c3cnn([C@H]4CCN(C(=O)/C=C/CF)[C@H](CC#N)C4)c32)c1F (single isomer, unassigned) [Example 6a]

More lines, now with the values behind:

Row | SMILES | IC50 [1] | IC50 ([2]; Homo sapiens, MIA PaCa-2) | IC50 [2]
10 | CC#CC(=O)N1CC[C@H](n2ncc3c(N4CC(C)(N(C)C)C4)nc4c(F)c(-c5cccc6cccc(C#N)c56)c(C)cc4c32)C[C@H]1CC#N (single isomer, unassigned) [Example 60a] | ≤ 100 nM | ≤ 100 nM | –
11 | Cc1cc2[nH]ncc2c(-c2c(C)cc3c(nc(N4CC(C)(N(C)C)C4)c4cnn([C@H]5CCN(C(=O)/C=C/CN(C)C)[C@H](CC#N)C5)c43)c2F)c1C (single isomer, unassigned) [Example 66a] | ≤ 100 nM | ≤ 100 nM | –
12 | COC/C=C/C(=O)N1CC[C@H](n2ccc3c(OC[C@@H]4CCCN4C)nc4c(F)c(-c5c(C)c(C)cc6[nH]ncc56)c(Cl)cc4c32)C[C@H]1CC#N (single isomer, unassigned) [Example 47a] | ≤ 100 nM | ≤ 100 nM | –
13 | Cc1cccc(-c2c(Cl)cc3c(nc(N4CC(N(C)C)C4)c4cnn([C@H]5CCN(C(=O)/C=C/CN(C)C)[C@H](CC#N)C5)c43)c2F)c1Cl [Example 24, 2-((2S,4S)-4-(8-chloro-7-(2-chloro-3-methylphenyl)-4-(3-(dimethylamino)azetidin-1-yl)-6-fluoro-1H-pyrazolo[4,3-c]quinolin-1-yl)-1-((E)-4-(dimethylamino)but-2-enoyl)piperidin-2-yl)acetonitrile] | ≤ 100 nM | ≤ 100 nM | –
14 | Cc1cc2[nH]ncc2c(-c2c(C)cc3c(nc(O[C@@H](C)[C@@H]4CCCN4C)c4cnn([C@H]5CCN(C(=O)/C=C/CN(C)C)[C@H](CC#N)C5)c43)c2F)c1C (single isomer, unassigned) [Example 71b] | ≤ 100 nM | ≤ 100 nM | –
15 | Cc1cc2[nH]ncc2c(-c2c(Cl)cc3c(nc(N4CC(N(C)C)C4)c4cnn([C@H]5CCN(C(=O)/C=C/CN(C)C)[C@H](CC#N)C5)c43)c2F)c1C (single isomer, unassigned) [Example 76a] | ≤ 100 nM | ≤ 100 nM | –
16 | CC#CC(=O)N1CC[C@H](n2ncc3c(OC[C@@H]4CCCN4C)nc4c(F)c(-c5cccc6cccc(C#N)c56)c(C)cc4c32)C[C@H]1CC#N (single isomer, unassigned) [Example 53a] | ≤ 100 nM | ≤ 100 nM | –
17 | CC#CC(=O)N1CC[C@H](n2ncc3c(N4CC(N(C)C)C4)nc4c(F)c(-c5cccc(Cl)c5Cl)c(Cl)cc4c32)C[C@H]1CC#N (single isomer, unassigned) [Example 26b] | ≤ 100 nM | – | ≤ 100 nM
18 | C=C(F)C(=O)N1CC[C@H](n2ncc3c(N4CC(C)(N(C)C)C4)nc4c(F)c(-c5c(C)c(Cl)cc6[nH]ncc56)c(Cl)cc4c32)C[C@H]1CC#N (single isomer, unassigned) [Example 15a] | ≤ 100 nM | ≤ 100 nM | –
19 | C=C(F)C(=O)N1CC[C@H](n2ncc3c(N4CC(C)(N(C)C)C4)nc4c(F)c(-c5c(C)c(C)cc6[nH]ncc56)c(Cl)cc4c32)C[C@H]1CC#N (single isomer, unassigned) [Example 81a] | ≤ 100 nM | ≤ 100 nM | –
20 | CN(C)C/C=C/C(=O)N1CC[C@H](n2ncc3c(N4CC(C)(N(C)C)C4)nc4c(F)c(-c5cccc6cccc(Cl)c56)c(Cl)cc4c32)C[C@H]1CC#N [Example 63, 2-((2S,4S)-4-(8-chloro-7-(8-chloronaphthalen-1-yl)-4-(3-(dimethylamino)-3-methylazetidin-1-yl)-6-fluoro-1H-pyrazolo[4,3-c]quinolin-1-yl)-1-((E)-4-(dimethylamino)but-2-enoyl)piperidin-2-yl)acetonitrile] | ≤ 100 nM | ≤ 100 nM | –
21 | C=CC(=O)N1CC[C@H](n2ncc3c(N4CC(N(C)C)C4)nc4c(F)c(-c5cncc6ccccc56)c(Cl)cc4c32)C[C@H]1CC#N [Example 22, 2-((2S,4S)-1-acryloyl-4-(8-chloro-4-(3-(dimethylamino)azetidin-1-yl)-6-fluoro-7-(isoquinolin-4-yl)-1H-pyrazolo[4,3-c]quinolin-1-yl)piperidin-2-yl)acetonitrile] | ≤ 100 nM | ≤ 100 nM | –
22 | COC/C=C/C(=O)N1CC[C@H](n2ncc3c(N4CC(C)(N(C)C)C4)nc4c(F)c(-c5c(C)c(Cl)cc6[nH]ncc56)c(Cl)cc4c32)C[C@H]1CC#N (single isomer, unassigned) [Example 12a] | ≤ 100 nM | ≤ 100 nM | –
